Data on five compounds can be found in patent publication US20250302832A1, “PYRAZINE DERIVATIVES AND USES THEREOF” (FOGHORN THERAPEUTICS INC., priority 2022, published 2025).

In one assay the target is T1, HiBit-BRM fusion protein (Homo sapiens, UniProt P51531).
T1 construct: expressed in transfected cells
In words: HiBiT-BRM cell-based degradation assay (Nano-Glo HiBiT lytic detection, 24 h). Conditions: HeLa cell line expressing HiBiT-BRM; for DC50: read-out: BRM HiBit Degradation IC50. The procedure, abridged:
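Luminescence from LgBiT complementation quantified remaining HiBiT-BRM in stably expressing HeLa cells after 24 h compound exposure (top final dose 30 μM, 3-fold, 10 points, duplicate). Degradation expressed as percent relative to DMSO and a 2 μM reference degrader.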

In assay [1] the target is T2, HiBit-BRG1 fusion protein (Homo sapiens, UniProt P51532).
T2 construct: expressed in transfected cells
Briefly: HiBiT-BRG1 cell-based degradation assay (Nano-Glo HiBiT lytic detection, 24 h). Conditions: HeLa cell line expressing HiBit-BRG1 and LgBit; for Dmax: read-out: BRG1 HiBit Degradation Maximum (%). The procedure, abridged: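 Luminescence from HiBiT/LgBiT complementation after lytic detection reagent was read following 24 h compound exposure of HeLa cells stably carrying HiBiT-BRG1 plus LgBiT (5000 cells/well). Signal scaled to % degradation using DMSO-treated cells as 0% and cells given 2 μM known BRM/BRG1 degrader as 100%.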

T2 sequence (P51532 whole entry, the tested form may be a part): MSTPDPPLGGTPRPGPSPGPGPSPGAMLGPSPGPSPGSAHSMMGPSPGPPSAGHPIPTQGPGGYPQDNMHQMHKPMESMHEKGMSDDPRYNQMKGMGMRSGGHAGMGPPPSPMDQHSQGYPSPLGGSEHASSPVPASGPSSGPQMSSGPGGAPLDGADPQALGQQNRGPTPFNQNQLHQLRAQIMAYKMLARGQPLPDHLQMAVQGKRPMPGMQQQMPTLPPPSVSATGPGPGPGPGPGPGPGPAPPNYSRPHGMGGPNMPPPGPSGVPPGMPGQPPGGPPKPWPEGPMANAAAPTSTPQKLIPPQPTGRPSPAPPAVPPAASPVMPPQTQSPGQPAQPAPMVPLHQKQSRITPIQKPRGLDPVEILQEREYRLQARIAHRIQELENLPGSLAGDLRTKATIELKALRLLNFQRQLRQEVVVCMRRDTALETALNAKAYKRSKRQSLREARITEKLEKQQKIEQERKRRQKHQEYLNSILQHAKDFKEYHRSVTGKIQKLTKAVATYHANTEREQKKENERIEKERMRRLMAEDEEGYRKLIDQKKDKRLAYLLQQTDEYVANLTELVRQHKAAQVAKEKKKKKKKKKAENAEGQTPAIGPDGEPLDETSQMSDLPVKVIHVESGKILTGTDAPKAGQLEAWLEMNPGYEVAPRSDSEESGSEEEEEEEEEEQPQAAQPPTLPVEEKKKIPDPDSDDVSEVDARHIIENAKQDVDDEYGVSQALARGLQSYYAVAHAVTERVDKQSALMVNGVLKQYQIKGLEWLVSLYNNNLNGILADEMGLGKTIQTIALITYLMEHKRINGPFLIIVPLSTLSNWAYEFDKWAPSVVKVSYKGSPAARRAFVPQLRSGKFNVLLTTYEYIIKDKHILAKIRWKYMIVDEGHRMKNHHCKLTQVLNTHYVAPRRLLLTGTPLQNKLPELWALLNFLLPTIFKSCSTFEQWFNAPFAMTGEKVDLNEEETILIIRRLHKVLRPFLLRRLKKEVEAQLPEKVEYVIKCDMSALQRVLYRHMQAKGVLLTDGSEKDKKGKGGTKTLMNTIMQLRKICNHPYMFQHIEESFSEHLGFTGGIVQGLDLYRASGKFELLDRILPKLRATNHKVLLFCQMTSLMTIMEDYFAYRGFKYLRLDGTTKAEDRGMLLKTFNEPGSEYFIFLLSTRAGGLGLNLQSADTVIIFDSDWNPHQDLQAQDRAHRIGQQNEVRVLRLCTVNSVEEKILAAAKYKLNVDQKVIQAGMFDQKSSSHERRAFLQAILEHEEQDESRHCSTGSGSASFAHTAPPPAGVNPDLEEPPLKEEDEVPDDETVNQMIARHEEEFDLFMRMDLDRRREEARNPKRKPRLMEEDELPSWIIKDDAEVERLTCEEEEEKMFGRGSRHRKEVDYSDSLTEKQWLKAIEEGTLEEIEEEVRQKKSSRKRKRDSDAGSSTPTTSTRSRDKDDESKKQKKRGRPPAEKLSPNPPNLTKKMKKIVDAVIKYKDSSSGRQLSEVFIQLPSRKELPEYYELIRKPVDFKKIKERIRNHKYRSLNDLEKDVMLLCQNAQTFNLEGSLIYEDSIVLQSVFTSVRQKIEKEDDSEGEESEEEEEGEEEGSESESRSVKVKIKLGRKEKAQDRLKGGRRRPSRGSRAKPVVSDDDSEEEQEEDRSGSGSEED
T1 sequence (P51531 whole entry, the tested form may be a part): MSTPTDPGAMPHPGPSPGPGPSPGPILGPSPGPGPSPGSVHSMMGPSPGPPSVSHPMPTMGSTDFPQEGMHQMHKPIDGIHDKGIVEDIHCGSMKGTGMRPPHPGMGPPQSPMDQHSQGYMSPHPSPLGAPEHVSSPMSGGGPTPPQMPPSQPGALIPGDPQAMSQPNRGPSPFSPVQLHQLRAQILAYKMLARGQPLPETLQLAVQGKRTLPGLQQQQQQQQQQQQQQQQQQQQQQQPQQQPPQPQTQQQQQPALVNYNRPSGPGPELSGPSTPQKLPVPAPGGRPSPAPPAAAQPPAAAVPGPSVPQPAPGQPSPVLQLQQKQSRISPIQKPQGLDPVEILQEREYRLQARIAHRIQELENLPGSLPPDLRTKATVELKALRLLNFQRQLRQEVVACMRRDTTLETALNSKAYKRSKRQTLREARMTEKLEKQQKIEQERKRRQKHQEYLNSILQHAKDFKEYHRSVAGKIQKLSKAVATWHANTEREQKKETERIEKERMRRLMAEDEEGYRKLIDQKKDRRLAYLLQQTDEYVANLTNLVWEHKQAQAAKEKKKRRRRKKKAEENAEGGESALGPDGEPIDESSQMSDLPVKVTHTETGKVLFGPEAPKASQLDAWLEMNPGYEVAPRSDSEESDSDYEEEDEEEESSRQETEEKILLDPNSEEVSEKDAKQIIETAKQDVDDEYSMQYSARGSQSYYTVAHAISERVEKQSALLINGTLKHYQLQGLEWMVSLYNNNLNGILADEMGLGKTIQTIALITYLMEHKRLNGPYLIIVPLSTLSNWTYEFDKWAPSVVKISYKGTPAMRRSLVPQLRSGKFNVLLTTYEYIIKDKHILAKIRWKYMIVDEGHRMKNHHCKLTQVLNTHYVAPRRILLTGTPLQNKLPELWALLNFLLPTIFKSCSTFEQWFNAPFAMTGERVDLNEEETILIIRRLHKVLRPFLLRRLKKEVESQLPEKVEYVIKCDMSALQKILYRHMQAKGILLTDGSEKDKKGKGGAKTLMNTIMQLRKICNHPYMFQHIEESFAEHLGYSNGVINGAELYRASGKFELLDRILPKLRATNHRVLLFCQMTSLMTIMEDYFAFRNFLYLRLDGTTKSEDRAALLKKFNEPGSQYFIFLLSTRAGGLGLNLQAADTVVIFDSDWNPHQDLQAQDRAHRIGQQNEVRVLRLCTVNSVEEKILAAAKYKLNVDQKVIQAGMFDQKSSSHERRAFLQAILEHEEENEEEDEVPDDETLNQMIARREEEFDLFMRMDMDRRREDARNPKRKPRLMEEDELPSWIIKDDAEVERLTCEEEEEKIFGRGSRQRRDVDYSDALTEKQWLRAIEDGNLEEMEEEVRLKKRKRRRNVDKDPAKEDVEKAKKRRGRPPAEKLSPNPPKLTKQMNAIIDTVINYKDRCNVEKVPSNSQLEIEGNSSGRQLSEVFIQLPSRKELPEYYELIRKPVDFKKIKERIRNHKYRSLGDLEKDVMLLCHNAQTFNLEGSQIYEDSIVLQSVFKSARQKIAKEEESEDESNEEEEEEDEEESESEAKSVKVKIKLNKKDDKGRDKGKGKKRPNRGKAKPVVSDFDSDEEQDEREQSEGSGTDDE

As for `Cc1ncsc1-c1ccc([C@H](C)NC(=O)[C@@H]2C[C@@H](O)CN2C(=O)[C@H](C(C)C)n2cc(-c3cnc(N4CC[C@H](c5cc6nnc(-c7ccccc7O)cc6n5C5CC5)C4)nc3)nn2)cc1` [Compound 74, (2S,4R)-1-((S)-2-(4-(2-((S)-3-(5-cyclopropyl-3-(2-hydroxyphenyl)-5H-pyrrolo[3,2-c]pyridazin-6-yl)pyrrolidin-1-yl)pyrimidin-5-yl)-1H-1,2,3-triazol-1-yl)-3-methylbutanoyl)-4-hydroxy-N—((S)-1-(4-(4-methylthiazol-5-yl)phenyl)ethyl)pyrrolidine-2-carboxamide], at HiBit-BRM fusion protein, the “BRM HiBit Degradation Maximum (%)” value is listed as “A (“A” indicates maximum degradation ≥75%)” and the DC50 was below 10 nM. The Dmax in assay [1] was above 50%. For the same compound, in assay [1] (read-out: BRMG1 HiBit Degradation IC50), the DC50 was below 10 nM.

For the compound `Cc1ncsc1-c1ccc([C@H](C)NC(=O)[C@@H]2C[C@@H](O)CN2C(=O)[C@@H](C(C)C)n2cc(-c3cnc(N4CC[C@H](c5cc6nnc(-c7ccccc7O)cc6n5C5CC5)C4)nc3)nn2)cc1` [Compound 75, (2S,4R)-1-((R)-2-(4-(2-((S)-3-(5-cyclopropyl-3-(2-hydroxyphenyl)-5H-pyrrolo[3,2-c]pyridazin-6-yl)pyrrolidin-1-yl)pyrimidin-5-yl)-1H-1,2,3-triazol-1-yl)-3-methylbutanoyl)-4-hydroxy-N—((S)-1-(4-(4-methylthiazol-5-yl)phenyl)ethyl)pyrrolidine-2-carboxamide], at HiBit-BRM fusion protein, the “BRM HiBit Degradation Maximum (%)” value is on record as “A (“A” indicates maximum degradation ≥75%)” and the DC50 is above 10 nM. The Dmax in assay [1] is below 50%.

For `Cc1ncsc1-c1ccc([C@H](C)NC(=O)[C@@H]2C[C@@H](O)CN2C(=O)[C@@H](c2cc(N3CCC(c4cc5nnc(-c6ccccc6O)cc5n4C4CC4)CC3)no2)C(C)C)cc1` [Compound 76, (2S,4R)-1-((R)-2-(3-(4-(5-cyclopropyl-3-(2-hydroxyphenyl)-5H-pyrrolo[3,2-c]pyridazin-6-yl)piperidin-1-yl)isoxazol-5-yl)-3-methylbutanoyl)-4-hydroxy-N-((S)-1-(4-(4-methylthiazol-5-yl)phenyl)ethyl)pyrrolidine-2-carboxamide], on HiBit-BRM fusion protein, the “BRM HiBit Degradation Maximum (%)” value is “A (“A” indicates maximum degradation ≥75%)” and the DC50 was below 10 nM. Moreover, the Dmax in assay [1] was below 50%.

As to `Cc1ncsc1-c1ccc([C@H](C)NC(=O)[C@@H]2C[C@@H](O)CN2C(=O)[C@@H](c2cc(N3CC4(CC(c5cc6nnc(-c7ccccc7O)cc6n5CC5CC5)C4)C3)no2)C(C)C)cc1` [Compound 77, (2S,4R)-1-((R)-2-(3-(6-(5-(cyclopropylmethyl)-3-(2-hydroxyphenyl)-5H-pyrrolo[3,2-c]pyridazin-6-yl)-2-azaspiro[3.3]heptan-2-yl)isoxazol-5-yl)-3-methylbutanoyl)-4-hydroxy-N-((S)-1-(4-(4-methylthiazol-5-yl)phenyl)ethyl)pyrrolidine-2-carboxamide], on HiBit-BRM fusion protein, the “BRM HiBit Degradation Maximum (%)” value is reported as “A (“A” indicates maximum degradation ≥75%)” and the DC50 is below 10 nM. For the same compound, the Dmax in assay [1] was below 50%.

As to `Cc1ncsc1-c1ccc([C@H](C)NC(=O)[C@@H]2C[C@@H](O)CN2C(=O)[C@@H](c2cc(N3CC4(CC(c5cc6nnc(-c7ccccc7O)cc6n5C5CC5)C4)C3)no2)C(C)C)cc1` [Compound 78, (2S,4R)-1-((R)-2-(3-(6-(5-cyclopropyl-3-(2-hydroxyphenyl)-5H-pyrrolo[3,2-c]pyridazin-6-yl)-2-azaspiro[3.3]heptan-2-yl)isoxazol-5-yl)-3-methylbutanoyl)-4-hydroxy-N-((S)-1-(4-(4-methylthiazol-5-yl)phenyl)ethyl)pyrrolidine-2-carboxamide], at HiBit-BRM fusion protein, the “BRM HiBit Degradation Maximum (%)” value is on record as “A (“A” indicates maximum degradation ≥75%)” and the DC50 is below 10 nM. The Dmax in assay [1] was below 50%.
